Results from patent US7829283B2, “Methylation of estrogen receptor alpha and uses thereof” (John Wayne Cancer Institute, priority 2006, dated 2010).

What was measured:
[1] = tested on: ER-α mRNA expression in MCA melanoma cell line; assay: ER-α mRNA re-expression by RT-PCR in melanoma cell lines after 5-Aza and TSA treatment; format: cell-based, human; conditions: data not shown
Experimental: To confirm down-regulation of ER-α expression by hypermethylation of the ER-α promoter region, cell lines were treated with the DNA-demethylating agent, 5-Aza, and the HDAC inhibitor, TSA. In combination with 5-Aza treatment, TSA can up-regulate the mRNA expression of genes silenced due to hypermethylation (26, 27). The MCF-7 cell line was used as an ER-α positive control and the MCA cell line was used as an ER-α negative control. Cell lines were maintained in RPMI 1640 medium supplemented with heat-inactivated 10% fetal bovine serum (FBS), penicillin G, and streptomycin (100 U/ml). Cells were treated with 1000 nM TSA for 24 hr (Wako Biochemicals, Osaka, Japan) and 1000 nM 5-Aza for five days (Sigma Chemical Co., St Louis, Mo.). After treatment with 5-Aza and TSA, melanoma cells were washed with phosphate buffered saline (PBS) and harvested with 0.25% trypsin-0.53 mM EDTA (Gibco, Auckland, N.J.). The mRNA expression level of ER-α was assessed by RT-PCR before and after 5-Aza and TSA treatment. […] The RNA was quantified and assessed for purity using ultraviolet spectrophotometry and the RIBOGreen detection assay (Molecular Probes, Eugene, Oreg.). The expression of mRNA for GAPDH, an internal reference housekeeping gene, was assessed by RT-PCR on all RNA samples to verify the integrity of RNA and to indicate equal loading of PCR products for gel electrophoresis. […]

melanoma cells = conditions: in vitro experiments; cited from earlier work
advanced melanoma = conditions: chemotherapy and BC regimens; cited from earlier work

| SMILES | ER-α mRNA expression, single agent versus need for the second agent [1] | growth inhibition of melanoma cells in vitro (melanoma cells) | overall survival in advanced melanoma (advanced melanoma) |
| --- | --- | --- | --- |
| Nc1ncn([C@H]2C[C@H](O)[C@@H](CO)O2)c(=O)n1 [5-Aza, 5-aza-2-deoxycytidine] | did not significantly increase | – | – |
| CC(/C=C/C(=O)NO)=C\[C@@H](C)C(=O)c1ccc(N(C)C)cc1 [TSA, trichostatin A] | necessary to significantly increase expression above pretreatment levels | – | – |
| CC/C(=C(\c1ccccc1)c1ccc(OCCN(C)C)cc1)c1ccccc1 [tamoxifen] | – | effective growth inhibitor | has not been shown to significantly improve overall survival |
